Test results from ChEMBL document CHEMBL5365467 (J Med Chem, 2023).
One block for each compound: values may come before it.

How the values were obtained:
[1] = target: Protein cereblon/Androgen receptor (Homo sapiens, UniProt P10275+Q96SW2); experiment: PROTAC activity at AR/CRBN in AR-positive human VCaP cells assessed as induction of androgen receptor degradation measured at 24 hrs; format: cell-based
[2] = in vivo; conditions: Sprague-Dawley, rat, po, 5 mg/kg
[3] = Volume of distribution at steady state in Sprague-Dawley rat at 2 mg/kg, iv measured upto 24 hrs by LC-MS/MS analysis; conditions: in vivo
[4] = Half life in Sprague-Dawley rat at 5 mg/kg, po measured upto 24 hrs by LC-MS/MS analysis; conditions: in vivo
[5] = system: VCaP; experiment: Growth inhibition in human VCaP cells
[6] = in vivo; conditions: Sprague-Dawley, rat, po, 5 mg/kg; remark: listed apart in the source
[7] = Half life in Sprague-Dawley rat at 2 mg/kg, iv measured upto 24 hrs by LC-MS/MS analysis; conditions: in vivo
[8] = in vivo; conditions: Sprague-Dawley, rat, po, 5 mg/kg; remark: listed apart in the source
[9] = target: Protein cereblon/Androgen receptor (Homo sapiens, UniProt P10275+Q96SW2, T878A); experiment: PROTAC activity at AR T878A mutant/CRBN in human LNCaP cells assessed as induction of androgen receptor degradation measured at 24 hrs by Western blot analysis; format: cell-based
[10] = in vivo; conditions: Sprague-Dawley, rat, iv, 2 mg/kg
[11] = Clearance in Sprague-Dawley rat at 2 mg/kg, iv measured upto 24 hrs by LC-MS/MS analysis; conditions: in vivo
[12] = Clearance in Sprague-Dawley rat at 1 mg/kg, iv measured upto 24 hrs by LC-MS/MS analysis; format: ADME, organism-based; conditions: in vivo
[13] = AUC (0 to t) in Sprague-Dawley rat at 1 mg/kg, iv measured upto 24 hrs by LC-MS/MS analysis; format: ADME, organism-based; design: dose 1 mg/kg, time < 24 hrs, route iv; conditions: in vivo
[14] = Cmax in Sprague-Dawley rat at 3 mg/kg, po measured upto 24 hrs by LC-MS/MS analysis; format: ADME, organism-based; design: dose 3 mg/kg, time < 24 hrs, route po; conditions: in vivo
[15] = Half life in Sprague-Dawley rat at 1 mg/kg, iv measured upto 24 hrs by LC-MS/MS analysis; format: ADME, organism-based; conditions: in vivo
[16] = AUC (0 to t) in Sprague-Dawley rat at 3 mg/kg, po measured upto 24 hrs by LC-MS/MS analysis; format: ADME, organism-based; design: dose 3 mg/kg, time < 24 hrs, route po; conditions: in vivo
[17] = Half life in Sprague-Dawley rat at 3 mg/kg, po measured upto 24 hrs by LC-MS/MS analysis; format: ADME, organism-based; conditions: in vivo
[18] = Volume of distribution at steady state in Sprague-Dawley rat at 1 mg/kg, iv measured upto 24 hrs by LC-MS/MS analysis; format: ADME, organism-based; conditions: in vivo, read-out: Vdss
[19] = Oral bioavailability in Sprague-Dawley rat at 3 mg/kg measured upto 24 hrs by LC-MS/MS analysis; format: ADME, organism-based; conditions: in vivo
[20] = target: T1, Androgen receptor (Homo sapiens, UniProt P10275)
T1 sequence (P10275 whole entry): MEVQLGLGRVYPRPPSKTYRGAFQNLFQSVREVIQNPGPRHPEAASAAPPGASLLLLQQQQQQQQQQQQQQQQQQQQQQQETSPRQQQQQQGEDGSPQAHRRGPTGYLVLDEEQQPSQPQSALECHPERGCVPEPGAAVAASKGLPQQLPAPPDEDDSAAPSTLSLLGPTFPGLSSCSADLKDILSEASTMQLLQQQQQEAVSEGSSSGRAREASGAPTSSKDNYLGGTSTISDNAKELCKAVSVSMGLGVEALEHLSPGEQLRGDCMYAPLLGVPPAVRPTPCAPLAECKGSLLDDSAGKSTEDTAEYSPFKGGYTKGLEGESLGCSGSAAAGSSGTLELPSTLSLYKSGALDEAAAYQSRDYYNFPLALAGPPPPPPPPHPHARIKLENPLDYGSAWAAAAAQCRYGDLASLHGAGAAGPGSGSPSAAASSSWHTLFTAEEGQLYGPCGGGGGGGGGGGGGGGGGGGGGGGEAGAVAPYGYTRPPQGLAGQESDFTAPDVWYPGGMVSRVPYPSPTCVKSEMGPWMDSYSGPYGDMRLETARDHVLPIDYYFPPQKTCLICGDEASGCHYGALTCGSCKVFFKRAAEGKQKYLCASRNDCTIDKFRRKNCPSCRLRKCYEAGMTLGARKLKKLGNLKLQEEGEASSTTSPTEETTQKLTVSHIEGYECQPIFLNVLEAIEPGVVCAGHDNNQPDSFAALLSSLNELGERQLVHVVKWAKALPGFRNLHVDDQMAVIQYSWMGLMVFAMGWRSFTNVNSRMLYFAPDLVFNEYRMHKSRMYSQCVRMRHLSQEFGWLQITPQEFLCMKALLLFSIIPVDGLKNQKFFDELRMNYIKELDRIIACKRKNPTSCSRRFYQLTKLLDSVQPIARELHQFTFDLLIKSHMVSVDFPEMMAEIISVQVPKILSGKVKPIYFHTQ

Chain of Protein cereblon/Androgen receptor (Homo sapiens, UniProt P10275+Q96SW2) (Q96SW2 whole entry, one chain of several): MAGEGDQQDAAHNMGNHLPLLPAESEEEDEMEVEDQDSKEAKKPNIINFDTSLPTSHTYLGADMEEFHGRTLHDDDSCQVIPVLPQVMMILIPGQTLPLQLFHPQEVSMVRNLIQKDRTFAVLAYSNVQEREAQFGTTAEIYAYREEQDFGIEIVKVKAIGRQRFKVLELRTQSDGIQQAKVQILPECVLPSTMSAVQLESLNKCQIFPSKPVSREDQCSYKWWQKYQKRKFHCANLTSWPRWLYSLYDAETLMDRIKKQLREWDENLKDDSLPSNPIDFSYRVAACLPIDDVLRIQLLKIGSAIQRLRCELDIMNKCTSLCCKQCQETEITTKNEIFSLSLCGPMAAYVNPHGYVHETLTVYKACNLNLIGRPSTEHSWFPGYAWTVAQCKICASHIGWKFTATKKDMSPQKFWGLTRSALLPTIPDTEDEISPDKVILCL

Structure (SMILES): C[C@@H]1CC2(CCN(c3ccc(C(=O)N4CCC(CN5Cc6cc7c(cc6C5)C(=O)N(C5CCC(=O)NC5=O)C7=O)CC4)cc3)CC2)CN1c1ccc(C#N)c(Cl)c1 (stereo not given in full)
DC50 ([1]; read-out: DC50): 385 nM

Structure (SMILES): C[C@H]1CC2(CCN(c3ccc(C(=O)N4CCC(F)(CN5Cc6cc7c(cc6C5)C(=O)N(C5CCC(=O)NC5=O)C7=O)CC4)cc3)CC2)CN1c1ccc(C#N)c(Cl)c1 (stereo not given in full)
bioavailability at 24 h [2]: 18%
Vd at 24 h [3]: 4.2 L/kg
half-life at 24 h [4]: 5.2 h
IC50 [5]: 18 nM
Cmax at 24 h [6]: 216 ng/mL
DC50 ([1]; read-out: DC50): 0.9 nM
half-life at 24 h [7]: 7.9 h
AUC(0-t) at 24 h [8]: 1820 ng·h/mL
DC50 [9]: 3.7 nM
AUC(0-t) at 24 h [10]: 4000 ng·h/mL
clearance at 24 h [11]: 7.83 mL/min/kg

IC50 [5]: 23 nM
Structure (SMILES): CC[C@H]1CC2(CCN(c3ccc(C(=O)N4CCC(CN5Cc6cc7c(cc6C5)C(=O)N(C5CCC(=O)NC5=O)C7=O)CC4)cc3)CC2)CN1c1ccc(C#N)c(Cl)c1 (stereo not given in full)

bioavailability at 24 h [2]: 9%
Vd at 24 h [3]: 1.8 L/kg
half-life at 24 h [4]: 1.2 h
IC50 [5]: 25.7 nM
Cmax at 24 h [6]: 78 ng/mL
half-life at 24 h [7]: 1.4 h
AUC(0-t) at 24 h [8]: 310 ng·h/mL
AUC(0-t) at 24 h [10]: 1380 ng·h/mL
clearance at 24 h [11]: 25 mL/min/kg
Structure (SMILES): C[C@H]1CC2(CCN(c3ccc(C(=O)N4CC(CN5Cc6cc7c(cc6C5)C(=O)N(C5CCC(=O)NC5=O)C7=O)C4)cc3)CC2)CN1c1ccc(C#N)c(Cl)c1 (stereo not given in full)

Structure (SMILES): C[C@H]1CC2(CCN(c3cnc(C(=O)N4CCC(CN5Cc6cc7c(cc6C5)C(=O)N(C5CCC(=O)NC5=O)C7=O)CC4)cn3)CC2)CN1c1ccc(C#N)c(Cl)c1 (stereo not given in full)
clearance [12]: 33.3 mL/min/kg
AUC(0-t) at 24 h [13]: 495 ng·h/mL
Cmax [14]: 55 ng/mL
half-life [15]: 1.4 h
AUC(0-t) at 24 h [16]: 235 ng·h/mL
IC50 [5]: 10 nM
half-life [17]: 1.2 h
Vd [18]: 2.3 L/kg
bioavailability [19]: 15%

Structure (SMILES): CN1CCN(c2ccc(C(=O)N[C@H]3CC[C@H](N(C)c4ccc(C#N)c(Cl)c4)CC3)cc2)CC1
IC50 [20]: 15 nM

DC50 ([1]; read-out: DC50): 290 nM
Structure (SMILES): C[C@H]1CC2(CCN(c3ccc(C(=O)N4CCC(O)(CN5Cc6cc7c(cc6C5)C(=O)N(C5CCC(=O)NC5=O)C7=O)CC4)cc3)CC2)CN1c1ccc(C#N)c(Cl)c1 (stereo not given in full)

Structure (SMILES): N#Cc1ccc(N2CCC3(CCN(c4ccc(C(=O)N5CCC(N6CCc7cc8c(cc7C6)C(=O)N(C6CCC(=O)NC6=O)C8=O)CC5)cc4)CC3)C2)cc1Cl (stereo not given)
DC50 ([1]; read-out: DC50): 73 nM

IC50 [20]: 55 nM
Structure (SMILES): CN1CCN(c2ccc(C(=O)N[C@H]3CC[C@H](Oc4ccc(C#N)c(Cl)c4)CC3)cc2)CC1

Structure (SMILES): C[C@H]1CC2(CCN(c3ccc(C(=O)N4CCC(C)(CN5Cc6cc7c(cc6C5)C(=O)N(C5CCC(=O)NC5=O)C7=O)CC4)cc3)CC2)CN1c1ccc(C#N)c(Cl)c1 (stereo not given in full)
bioavailability at 24 h [2]: 45%
Vd at 24 h [3]: 3.1 L/kg
half-life at 24 h [4]: 8.4 h
IC50 [5]: 42 nM
Cmax at 24 h [6]: 539 ng/mL
DC50 ([1]; read-out: DC50): 3.8 nM
half-life at 24 h [7]: 6.1 h
AUC(0-t) at 24 h [8]: 5730 ng·h/mL
DC50 [9]: 8.9 nM
AUC(0-t) at 24 h [10]: 5090 ng·h/mL
clearance at 24 h [11]: 6.33 mL/min/kg

IC50 [20]: > 10000 nM
Structure (SMILES): CN1CCN(c2ccc(C(=O)N3CCC4(CC3)CN(c3ccc(C#N)c(Cl)c3)C4)cc2)CC1

Structure (SMILES): C[C@H]1CC2(CCN(c3ccc(C(=O)N4CC(N5Cc6cc7c(cc6C5)C(=O)N(C5CCC(=O)NC5=O)C7=O)C4)cc3)CC2)CN1c1ccc(C#N)c(Cl)c1 (stereo not given in full)
bioavailability at 24 h [2]: 7.2%
Vd at 24 h [3]: 2.7 L/kg
half-life at 24 h [4]: 1.89 h
IC50 [5]: 85 nM
Cmax at 24 h [6]: 94 ng/mL
DC50 ([1]; read-out: DC50): 0.7 nM
half-life at 24 h [7]: 3.2 h
AUC(0-t) at 24 h [8]: 423 ng·h/mL
DC50 [9]: 5 nM
AUC(0-t) at 24 h [10]: 2370 ng·h/mL
clearance at 24 h [11]: 14.5 mL/min/kg

IC50 [20]: 9900 nM
Structure (SMILES): CN1CCN(c2ccc(C(=O)N3CCC4(C3)CN(c3ccc(C#N)c(Cl)c3)C4)cc2)CC1

Structure (SMILES): C[C@H]1CC2(CCN(c3ccc(C(=O)N4CCC(CN5Cc6cc7c(cc6C5)C(=O)N(C5CCC(=O)NC5=O)C7=O)CC4)cn3)CC2)CN1c1ccc(C#N)c(Cl)c1 (stereo not given in full)
IC50 [5]: 11 nM
DC50 ([1]; read-out: DC50): 2.3 nM
DC50 [9]: 2.2 nM

IC50 [20]: 1800 nM
Structure (SMILES): CN1CCN(C(=O)c2ccc(N3CCC4(CCN(c5ccc(C#N)c(Cl)c5)C4)C3)cc2)CC1 (stereo not given)

Structure (SMILES): N#Cc1ccc(N2CCC3(CCN(c4ccc(C(=O)N5CCC(CN6Cc7cc8c(cc7C6)C(=O)N(C6CCC(=O)NC6=O)C8=O)CC5)cc4)CC3)C2)cc1Cl (stereo not given)
DC50 ([1]; read-out: DC50): 5.7 nM

Structure (SMILES): C[C@@H]1CC2(CCN(c3ccc(C(=O)N4CCN(C)CC4)cc3)CC2)CN1c1ccc(C#N)c(Cl)c1
DC50 [1]: Not Active
